This is an account of results in patent US5556872A, “Histamine derivatives useful as immunomodulators” (The Board of Trustees of the Leland Stanford Junior …, priority 1995, dated 1996).

In assay [1] the test system is IgG antibody response to horse myoglobin (h-Mb). Put plainly: Inhibition of IgG and IgG subclass antibody response to horse myoglobin in immunized mice (anti-horse myoglobin ELISA). Conditions: vs saline control mice. The assay is classed as in vivo, DBA/2 mice. On the procedure:
ELISA plates were coated with 10 ug/ml commercially available horse myoglobin (h-Mb) in PBS 50 ul/well overnight at 4 deg C. The plates were washed with PBS once. The plates were then coated with 50 ul BBA (1 mg/ml) and washed with PBS once. The plates were then coated with test serum diluted in PBS-Tween, 50 ul/well and incubated at 4 deg C. overnight. The plates were then washed with PBS-Tween three times. Anti-IgG (1:2000) was added and diluted with PBS-Tween. For the IgG antibody subclasses, anti-IgG1, anti-IgG2a, anti-IgG2b was diluted and added to selected wells. Incubation was at 4 deg C. for two hours. Washing was with PBS-Tween 2 times with 5 minutes between each wash. A 1 mg/ml OPD in citrate buffer solution pH5 was prepared and 10 ul of H2O2/10 ml was added to the buffer solution. 50 ul of buffer was added to each well and the plates were placed in the dark for about 10 minutes. The reaction was stopped with 50 ul of 5N H2SO4 in each well. The plates were then read on an Elisa reader.
The following immunization protocol was repeated several times. The results have been collected in FIGS. 1a-d.
This experiment was done using two groups of 2-6 DBA/2 mice (average weight 22 grams). One group of mice were given one treatment of compound 3 intravenously one day before antigen treatment (day-1) and two days following antigen treatment (day+2). The dose of compound 3 was approximately 36 mg/kg in 100 ul of PBS. The other group of mice was given a saline control in 100 ul PBS. On day 0 the two groups of mice were injected with 100 ug h-Mb in 100 ul CFA intravenously (i.v.). The mice were then boosted fourteen days later with 100 ug of h-Mb in 100 ul IFA. The mice were bled 30 days later.

The next assay has as its system H3. Briefly: Dominant interactions of congeners with histamine receptors: H3. Particulars: Human lymphocytes, monocytes and neutrophils. In kind it is binding.
Another assay deals with Hx. Briefly: Dominant interactions of congeners with histamine receptors: Hx. In kind it is binding, Human.
The subject of another assay is murine NS cells. Particulars: in vitro; cited from earlier work.
Assay [2] concerns phytohemagglutinin-induced Th proliferation. Conditions: pretreatment of human Ts cells with histamine; mediated via H2 receptors; cited from earlier work.
For the next assay, the system named is human Ts cells. Particulars: Khan et al. 1985, Sansoni et al. 1985; cited from earlier work.
Assay [3] deals with pokeweed mitogen-induced B cell differentiation. Conditions: pretreatment of human Ts cells with histamine; mediated via H2 receptors; cited from earlier work.
In another assay the target is H1 (Homo sapiens, UniProt P35367). Put plainly: Dominant interactions of congeners with histamine receptors: H1. In kind it is binding.
Sequence of H1 (P35367 whole entry): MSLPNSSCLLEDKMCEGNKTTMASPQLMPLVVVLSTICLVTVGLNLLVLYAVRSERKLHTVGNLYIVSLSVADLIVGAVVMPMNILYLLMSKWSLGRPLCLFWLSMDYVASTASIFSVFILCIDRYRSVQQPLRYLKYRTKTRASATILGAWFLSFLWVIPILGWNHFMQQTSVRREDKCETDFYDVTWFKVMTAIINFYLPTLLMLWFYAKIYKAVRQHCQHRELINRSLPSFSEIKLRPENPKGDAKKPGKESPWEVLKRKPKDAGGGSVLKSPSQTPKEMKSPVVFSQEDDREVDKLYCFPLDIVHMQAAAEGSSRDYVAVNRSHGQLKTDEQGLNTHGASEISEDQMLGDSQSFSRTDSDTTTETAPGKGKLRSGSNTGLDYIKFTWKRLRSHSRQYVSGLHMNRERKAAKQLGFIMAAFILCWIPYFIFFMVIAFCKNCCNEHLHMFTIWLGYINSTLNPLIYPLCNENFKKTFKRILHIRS
A further assay concerns the target H2 (Homo sapiens, UniProt P25021). Put plainly: Dominant interactions of congeners with histamine receptors: H2. In kind it is binding.
The mark [4] stands for this setting: comparable experiment using Compound 1, FIG. 3.
Setting [5] is: compound 3 approx. 36 mg/kg i.v. day -1 and day +2, FIG. 1.

Sequence of H2 (P25021 whole entry): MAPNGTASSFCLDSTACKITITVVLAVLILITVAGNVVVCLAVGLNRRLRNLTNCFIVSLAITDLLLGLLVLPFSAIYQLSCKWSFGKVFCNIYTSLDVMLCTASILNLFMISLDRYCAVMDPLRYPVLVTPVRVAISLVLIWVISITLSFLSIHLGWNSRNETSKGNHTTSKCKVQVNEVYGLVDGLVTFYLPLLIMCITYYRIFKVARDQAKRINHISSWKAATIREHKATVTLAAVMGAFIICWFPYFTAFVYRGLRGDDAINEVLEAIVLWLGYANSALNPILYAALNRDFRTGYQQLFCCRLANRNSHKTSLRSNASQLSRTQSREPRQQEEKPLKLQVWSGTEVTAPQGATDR

Turning to `CC(CCCCC(=O)Nc1ccc(C(F)(F)F)cc1)NCCc1c[nH]cn1` (stereo not shown) [Compound 1, His--NH--CHCH3--(CH2)4 CONH--phi--CF3], in assay [1] (setting [4]), the IgG1 response result was “lower”, the IgG2a response entry is reported as “lower” and the IgG response result is “lower”. For the same compound, the H3 dominant interaction entry with H3 is “AntiHx”.

In the case of `NCCc1c[nH]cn1` [Histamine], in the assay on Hx (Human lymphocytes, monocytes and neutrophils), the Hx dominant interaction entry is on record as “AntiHx”. Moreover, the “effect on suppressive ability of murine NS cells” value in the assay with murine NS cells is “enhances the suppressive ability of murine NS cells in vitro”. Moreover, the “phytohemagglutinin-induced Th proliferation” value in assay [2] was “inhibited”. Moreover, in the assay on human Ts cells, the “effect on human Ts cells” value is listed as “activates human Ts cells”. In assay [3], the “pokeweed mitogen-induced B cell differentiation” value is reported as “inhibited”.

`O=C(CCCCCNCCc1c[nH]cn1)Nc1ccc(C(F)(F)F)cc1` [Compound 3, His--NH--(CH2)5 CONH--phi--CF3]: the “Hx activity (in words)” value in the assay with Hx was “some Hx activity”. Further, in assay [1] (setting [5]), the IgG1 response result is on record as “lower”, the IgG2a response result is reported as “lower”, the IgG2b response result is listed as “lower” and the “total IgG response to h-Mb” value is “much lower”. Moreover, the “H1 receptor activity (in words)” value on H1 is “not H1 receptor activity”. At H2, the “H2 receptor activity (in words)” value is on record as “has been shown to have H2 receptor activity”.
